From patent US20140105829A1, “THERAPEUTIC NANOEMULSION FORMULATION FOR THE TARGETED DELIVERY OF DOCETAXEL AND METHODS OF MAKING AND USING THE SAME” (Nemucore Medical Innovations, Inc., priority 2012, published 2014)

How the values were obtained:
SKOV3TR cells = assay: MTT cytotoxicity assay, SKOV3TR; assay type: cell-based, human; conditions: 72 hr treatment, mean±SD, n=8, Pgp-expressing multidrug resistant cells
Protocol: In order to determine if the nanoemulsion formulations according to the disclosure produce a cytotoxic effect, the following experiments were done on SKOV3 and SKOV3TR cells. SKOV3TR cells express P-glycoprotein (Pgp), which produces chemotherapeutic agent efflux out of the cell and is associated with multidrug resistant cancer cells.
(§1) A tetrazolium (MTT) assay was performed, which measures the activity of cellular enzymes that reduces the MTT dye to insoluble formazan. SKOV3 and SKOV3TR cells were treated with corresponding test nanoemulsions or control solutions as indicated below in Table V. Polyethylenimine at 50 μg/ml was used as a positive control for cytotoxicity. […] After the completion of treatment, cells were incubated with MTT reagent (50 μg/well) for 2 hr, the resulting formazan crystals were dissolved in dimethyl sulfoxide ([…]) and measured at 570 nm in the Plate reader (Synergy HT, Biotek Instruments, Winooski, Vt.).
(§2) All IC50 values were obtained by analyzing the MTT assays results using Graphpad Prism 5 scientific data analysis software.

SKOV3 cells = assay: MTT cytotoxicity assay, SKOV3; assay type: cell-based, human; conditions: 72 hr treatment, mean±SD, n=8
Protocol: as §1, §2

[1] = Dose range finding plasma pharmacokinetic study; assay type: in vivo; conditions: CD-1 mice, iv; for AUC0-∞ / AUClast / Cl / Cmax / MRT / Tmax / Vd / t1/2: plasma docetaxel
Protocol: A dose range finding (DRF) study was conducted to determine the pharmacokinetic profile of folate receptor-targeted nanoemulsion formulations according to the disclosure administered to CD-1 mice at dose levels ranging from 1 mg/kg to 10 mg/kg. […] Blood was collected at 5 min, 30 min, 1 hr, 2 hr, 4 hr, 6 hr, 8 hr, 12 hr, and 24 hr after injection. Docetaxel concentration in the plasma was measured using a liquid chromatography-mass spectrometer (LC-MS/MS).
Pharmacokinetic parameters were calculated by non-compartmental analysis using Phoenix WinNonlin 6.2 version.

[2] = test system: subcutaneous SKOV3 tumors; design: species or system Nu/Nu mice; conditions: mouse, in vivo, iv
Text: Three female Nu/Nu mice (Charles River Laboratories, Cambridge, Mass.) each weighing approximately 20 g and bearing subcutaneous SKOV3 tumors (human ovary cancer cells, American Type Culture Collection (ATCC), Manassas, Va.) […], were used as test subjects. The first mouse was intravenously injected with gadopentetic acid containing a 0.072 mmol/kg dose of Gd-DTPA-PE (Magnevist™). The second mouse was intravenously injected with a non-targeted Gd-labeled nanoemulsion formulation of the present disclosure containing a 0.072 mmol/kg dose of Gd-DTPA-PE. The third mouse was intravenously injected with a folate receptor-targeted Gd-labeled nanoemulsion formulation of the present disclosure containing a 0.072 mmol/kg dose of the gadolinium-based MRI contrasting agent Gd-DTPA-PE. All three mice were full body scanned and imaged using a Bruker Biospec 20/70 MRI machine over a period of 24 hr.

[3] = 1 mg/kg docetaxel as folate receptor-targeted nanoemulsion formulation
[4] = 5 mg/kg docetaxel as folate receptor-targeted nanoemulsion formulation
[5] = 10 mg/kg docetaxel as folate receptor-targeted nanoemulsion formulation

docetaxel [Docetaxel in solution]
IC50 (SKOV3TR cells): 27000 nM | IC50 (SKOV3 cells): 1 ± 1.3 nM | AUC0-∞ [1, 3]: 475 ± 34 ng·h/mL | AUClast [1, 3]: 789 ± 667 ng·h/mL | Cl [1, 3]: 35.17 ± 2.55 mL/min/kg | Cmax [1, 3]: 2125 ± 1181 ng/mL | MRT [1, 3]: 1.53 ± 0.3 h | Tmax [1, 3]: 4.98 min | Vd [1, 3]: 13.275 ± 7.029 L/kg | t1/2 [1, 3]: 4.29 ± 2 h | dose dependence of plasma docetaxel pharmacokinetics ([1]; 1 mg/kg to 10 mg/kg, folate receptor-targeted nanoemulsion formulation): linear pharmacokinetics from 1 mg/kg to 5 mg/kg | AUC0-∞ [1, 4]: 19095 ± 24050 ng·h/mL | AUClast [1, 4]: 19026 ± 24077 ng·h/mL | Cl [1, 4]: 15.4 ± 16.77 mL/min/kg | Cmax [1, 4]: 38267 ± 31757 ng/mL | MRT [1, 4]: 2.25 ± 0.5 h | Tmax [1, 4]: 4.98 min | Vd [1, 4]: 9.074 ± 12.083 L/kg | t1/2 [1, 4]: 4.9 ± 2.6 h | AUC0-∞ [1, 5]: 16719 ± 28251 ng·h/mL | AUClast [1, 5]: 16653 ± 28251 ng·h/mL | Cl [1, 5]: 16 ± 12.5 mL/min/kg | Cmax [1, 5]: 52229 ± 28251 ng/mL | MRT [1, 5]: 2.6 ± 1 h | Tmax [1, 5]: 4.98 min | Vd [1, 5]: 5.801 ± 5.151 L/kg | t1/2 [1, 5]: 3.7 ± 1 h

CNC[C@H](O)[C@@H](O)[C@H](O)[C@H](O)CO.CNC[C@H](O)[C@@H](O)[C@H](O)[C@H](O)CO.O=C([O-])CN(CCN(CC(=O)[O-])CC(=O)O)CCN(CC(=O)[O-])CC(=O)O.[Gd+3] [Magnevist, gadopentetic acid]
time by which tumor signal cleared to near baseline [2]: ≤ 6 h
